Results reported in patent publication US20260049072A1, “HETEROCYCLIC COMPOUND FOR INDUCING DEGRADATION OF MUTANT KRAS PROTEIN” (Astellas Pharma Inc., priority 2022, published 2026).

How the values were obtained:
[1] = target: T1, RAS G12V (Homo sapiens, UniProt P01116, G12V); assay: RAS G12V degradation activity, Cell ELISA, PA-TU-8902; format: cell-based; settings: PA-TU-8902 cells, 24 hours; for DC50: 100% = Example compound 17 at 1 μM, read-out: DC50 (RAS G12V 50% degradation value)
T1 construct: host or cells: PA-TU-8902 human pancreatic cancer cells
How it was run: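 PA-TU-8902 cells (KRAS G12V) treated 24 h at 37 °C with 10 concentrations, 3 μM to 0.1 nM final; fixed, permeabilised, stained with G12V-specific and β-actin antibodies, infrared fluorescence read. Degradation scaled from DMSO (0%) to 1 μM reference degrader (100%), actin-normalised; DC50 by Sigmoid-Emax regression.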

[2] = test system: PA-TU-8902 cells; assay: Non-anchorage-dependent cell growth inhibition (spheroid 3D culture), PA-TU-8902; format: cell-based, human; settings: Homo sapiens, PaTu 8902, 144 h; KRAS G12V mutant-positive, 3D spheroid, six days, CellTiter-Glo 2.0; read-out: PA-TU-8902 IC50
How it was run: (§1)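 Human pancreatic lines (PA-TU-8902 KRAS G12V, AsPC-1 G12D, MIA PaCa-2 G12C) grown as spheroids at 5×10^2 cells/well in low-adhesion round-bottom plates; MIA PaCa-2 in RPMI-1640 with 10% FBS. Compounds added next day (6-9 points, 3 μM to 0.3 nM final) for six days at 37 °C, 5% CO2. CellTiter-Glo luminescence, IC50 by Sigmoid-Emax regression versus DMSO and cell-free controls.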

[3] = test system: MIA PaCa-2 cells; assay: Non-anchorage-dependent cell growth inhibition (spheroid 3D culture), MIA PaCa-2; format: cell-based; settings: Homo sapiens, MIA PaCa-2, 144 h; KRAS G12C mutant-positive, 3D spheroid, six days, CellTiter-Glo 2.0; read-out: MIA PaCa-2 IC50
How it was run: as §1

T1 sequence (P01116 1-188 isoform P01116-2 G12V): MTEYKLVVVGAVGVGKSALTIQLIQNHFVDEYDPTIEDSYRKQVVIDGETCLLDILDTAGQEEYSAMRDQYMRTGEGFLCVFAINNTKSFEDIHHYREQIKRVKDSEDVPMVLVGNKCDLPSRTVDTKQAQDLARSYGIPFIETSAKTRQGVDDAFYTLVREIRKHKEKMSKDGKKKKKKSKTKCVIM

DC50 [1] [nM] | IC50 [3] [nM] | Dmax ([1]; PaTu 8902, RAS G12V, read-out: Dmax (degradation rate at the concentration with highest degradation activity)) [%] | Compound | IC50 [2] [nM]
37 | 20 |  | CO[C@@H](C)COc1cc(OC2CN(C(=O)NCCN(C)C)C2)c2cc(C3CC3)c(-c3c(C)c(F)cc4[nH]ncc34)c(OCc3ccc(-c4cn([C@H](C(=O)N5C[C@H](O)C[C@H]5C(=O)N[C@@H](CO)c5ccc(-n6cncn6)cc5)C(C)C)nn4)cc3)c2n1 (atropisomer, axis not shown; (M)) [Example 12, (4R)-1-[(2S)-2-(4-{4-[({(7M)-6-cyclopropyl-4-[(1-{[2-(dimethylamino)ethyl]carbamoyl}azetidin-3-yl)oxy]-7-(6-fluoro-5-methyl-1H-indazol-4-yl)-2-[(2S)-2-methoxypropoxy]quinolin-8-yl}oxy)methyl]phenyl}-1H-1,2,3-triazol-1-yl)-3-methylbutanoyl]-4-hydroxy-N-{(1R)-2-hydroxy-1-[4-(1H-1,2,4-triazol-1-yl)phenyl]ethyl}-L-prolinamide] | 36
112 | 17 | 62 | CO[C@@H](C)COc1nc(N[C@H]2C[C@H](OCCN(C)C)C2)c2cc(C3CC3)c(-c3c(C)c(F)cc4[nH]ncc34)c(OCc3ccc(-c4cn([C@H](C(=O)N5C[C@H](O)C[C@H]5C(=O)N[C@@H](CO)c5ccc(-c6scnc6C)cc5)C(C)C)nn4)cc3)c2n1 (atropisomer, axis not shown) [Example 23] | 182
